This is an account of results in patent publication US20090196910A1, “Sustained-Release Preparation of Statin Drugs” (PFICKER PHARMACEUTICALS LTD., priority 2005, published 2009).

For data set [1], the system named is carboxylate hydrolases in human blood. In words: Hydrolysis of 4-esters of statin drugs by ester hydrolases in vitro. Format: in vitro ADME. The following applies: pH 6.5-7.5. The source says: As shown in the in vitro experiments, the esters of statin drugs formed at the 4-hydroxyl group can be transformed into statin drugs by many dominant human ester hydrolases at a pH of 6.5-7.5.

The conditions of data set [2]: oral administration; cited from earlier work.

In the case of `CCC(C)(C)C(=O)O[C@H]1C[C@@H](C)C=C2C=C[C@H](C)C(CC[C@@H]3C[C@@H](OC(C)=O)CC(=O)O3)C21` (some centres unmarked) [4-acetate of simvastatin], in data set [1], the “transformation into the statin drug by ester hydrolases” value is “readily transformed into simvastatin”. On to `CC(C)c1c(C(=O)Nc2ccccc2)c(-c2ccccc2)c(-c2ccc(F)cc2)n1CC[C@@H](O)C[C@@H](O)CC(=O)O` [atovastatin], for which, in data set [2], the bio-availability entry was “no more than 14%”.
